The source of these data is article PMC5607265, “Design, synthesis and structure-activity relationship of 3,6-diaryl-7H-[1,2,4]triazolo[3,4-b][1,3,4]thiadiazines as novel tubulin inhibitors” (Scientific Reports, 2017).

Entries after “also recorded” stand apart in the source; their conditions may differ.

In series [1] the target is colchicine-binding site on tubulin (Sus scrofa, UniProt P02554). Kind of series: Competitive tubulin-binding assay (colchicine). Conditions: 5.0 µM colchicine; compound 1.6, 5.0, 15.0 µM. The procedure:
To confirm whether these designed compounds could bind to the colchicine site on tubulin, compound 6i was investigated for its ability of competitive inhibition of colchicine binding[39],[40]. CA-4 and paclitaxel were used as a positive and a negative control, respectively.
Figure 6 Competitive binding of 6i to colchicine-binding site on tubulin.
For the colchicine competitive binding assay, tubulin was co-incubated with indicated concentrations of MPSP-001 and paclitaxel at 37 °C for 1 h. Then colchicine was added to a final concentration of 5 μmol L^−1. Fluorescence was determined using a Hitachi F-2500 spectrofluorometer (Tokyo, Japan) at the excitation wavelength of 365 nm and the emission wavelength of 435 nm. Blank values (buffer alone) as the background were subtracted from all samples. […] Paclitaxel, not binding in the colchicine site of tubulin, was added as a negative control. The experiments were repeated at least three times.
(5). Competitive tubulin-binding assay. For the colchicine competitive binding assay, tubulin was co-incubated with indicated concentrations of MPSP-001 and paclitaxel at 37 °C for 1 h. Then colchicine was added to a final concentration of 5 μmol L^−1. Fluorescence was determined using a Hitachi F-2500 spectrofluorometer (Tokyo, Japan) at the excitation wavelength of 365 nm and the emission wavelength of 435 nm. […]

In the next series the test system is HCT116. Set-up: method as in Org. Biomol. Chem. 2005, 3, 2657-2660. The conditions noted are these: ref Org. Biomol. Chem. 2005, 3, 2657-2660; cited from earlier work.
Another series relates to SGC-7901 cells. Kind of series: Cell cycle analysis by flow cytometry. The series is classed as cell-based, human. The conditions noted are these: for cell cycle arrest: SGC-7901, 12 h, 6i 0.011, 0.022, 0.044 µM, CA-4 0.022 µM. The protocol:
Thus, the effect of compound 6i on the cell cycle progression of the SGC-7901 cells was investigated by flow cytometry analysis (Fig. 5). […] Compound 6i could arrest cell cycle distribution at the G2/M phase in a dose-dependent manner.
Figure 5 Compound 6i affects the cell cycle progression in SGC-7901 cells.
Cell cycle analysis studies were performed by following a previously reported method. […] The cells were collected by centrifugation, washed with PBS and fixed in ice-cold 70% ethanol. The fixed cells were harvested by centrifugation and resuspended in 500 µl of PBS containing 1 mg/mL RNase. After 30 min of incubation at 37 °C, the cells were stained with […] propidium iodide (PI) at 4 °C in the dark for 30 min. The samples were then analyzed by FACScan flow cytometry (Becton-Dickinson, Franklin Lakes, NJ, USA). The experiments were repeated at least three times.
The cells were collected by centrifugation, washed with PBS and fixed in ice-cold 70% ethanol. The fixed cells were harvested by centrifugation and resuspended in 500 µl of PBS containing 1 mg/mL RNase. After 30 min of incubation at 37°C, the cells were stained with […] propidium iodide (PI) at 4°C in the dark for 30 min. The samples were then analyzed by FACScan flow cytometry (Becton-Dickinson, Franklin Lakes, NJ, USA). The experiments were repeated at least three times.
Figure S1 Compound 6i induced G2/M phase arrest in a time-dependent manner. SGC-7901 cells were treated with 6i (0.022 µM) for time 12, 24, 36, 48 and 60 h, then stained with PI and subjected to flow cytometric analysis.
In general terms: In flow cytometry, cells or beads pass a laser one at a time.

As usually defined, the IC50 is the concentration that inhibits the measured activity by half. With `COc1ccc(/C=C\c2cc(OC)c(OC)c(OC)c2)cc1O` [CA-4, Combretastatin A-4, reference compound], the “competition with colchicine: fluorescence of colchicine-tubulin complex” value in series [1] is listed as “fluorescence of a colchicine-tubulin complex was reduced”. For the same compound, the IC50 with HCT116 was 16 nM. For the same compound, the cell cycle arrest entry with SGC-7901 cells is listed as “potent cell cycle arrests in G2/M phase”.

The melting point is the temperature, or range, at which the solid turns liquid. The compound `COc1cccc(-c2nnc3n2N=C(c2ccc(OC)c(N)c2)CS3)c1` [Compound 6i, 3-(3-Methoxyphenyl)-6-(3-amino-4-methoxyphenyl)-7H-[1,2,4]triazolo[3,4-b][1,3,4]thiadiazine] returned a melting point of 138 to 140 °C. In series [1], the “competition with colchicine: fluorescence of colchicine-tubulin complex” value is “fluorescence of a colchicine-tubulin complex was reduced”. Besides, the “apoptosis after G2/M arrest (sub-G1)” value with SGC-7901 cells (SGC-7901, 6i 0.022 µM, 12-60 h) is given as “sub-G1 phase increase from 24 to 60 h; also recorded: cause subsequent apoptosis after G2/M arrest”. For the same compound, the cell cycle arrest result in the series on SGC-7901 cells is on record as “induced cell arrest in G2/M phase from 0 to 12 h; also recorded: potent cell cycle arrests in G2/M phase”.
